From US20220016048A1, “CANNABIDIOL-TYPE CANNABINOID COMPOUND” (GW Research Limited, priority 2018, published 2022)
Entries after “also recorded” stand apart in the source; their conditions may differ.

Assays:
[1] = system: Salmonella typhimurium (TA98, TA100, TA1535, TA1537 and TA102); test: Ames test; type: cell-based; conditions: absence and presence of S-9
Experimental: The aim of this study was to evaluate the potential mutagenic activity of CBD-C4 by examining its ability to revert five histidine-requiring strains of Salmonella typhimurium in the absence and presence of a rat liver metabolising system (S-9).
Control treatments were performed with 2-nitrofluorene (2NF) at a final concentration of 5 μg/plate; Sodium azide (NaN3) at a final concentration of 2 μg/plate; 9-aminoacridine (AAC) at a final concentration of 50 μg/plate; Mitomycin C (MMC) at a final concentration of 0.2 μg/plate; Benzo[a]pyrene (B[a]P) at a final concentration of 10 μg/plate; and 2-aminoanthracene (AAN) at a final concentration of 5 and 20 μg/plate.
Treatments were carried out both in the absence and presence of S-9 by addition of either buffer solution or 10% S-9 mix respectively.
Five strains of Salmonella typhimurium bacteria (TA98, TA100, TA1535, TA1537 and TA102) were used in this study.
Bacteria were cultured at 37±1° C. for 10 hours in nutrient broth, containing ampicillin or ampicillin and tetracycline as appropriate, to provide bacterial cultures in the range of approximately 10^8 to 10^9 cells/mL, based on cell count data from testing of each strain batch. […]
Following incubation, these plates were examined for evidence of toxicity to the background lawn, and where possible revertant colonies were counted. […]

Rat micronucleus assay = type: in vivo; conditions: Sprague Dawley, rat, in vivo; male rats, oral gavage; read-out: estimate of the maximum tolerated dose
Experimental: (§1) CBD-C4 was tested for its potential to induce micronuclei (MN) in the polychromatic erythrocytes (PCE) of the bone marrow of treated rats to induce DNA damage in the liver of the same animals.
(§2) CBD-C4 was administered at a dose of 125, 250 and 500 mg/kg/day during this study. Vehicle and a positive control of ethyl methanesulfonate (EMS) at a dose of 150 mg/kg/day were tested alongside the CBD-C4.
(§3) A range finding study was performed on 9 male young adult out-bred Sprague Dawley rats justifying the chosen dose levels of CBD-C4 used during the study.
(§4) Animals were allocated into groups of six with the exception of the positive control which comprised three animals.
(§5) Rats were dosed by oral gavage with test article suspended in sesame oil, vehicle (sesame oil) or positive control.
(§6) Blood samples were taken for bioanalysis and tissue samples were removed from animals at necropsy from the liver and femur.
(§7) Bone marrow sampling, micronucleus slide preparation and comet cell suspensions were undertaken to determine level of toxicity of CBD-C4.

[2] = system: polychromatic erythrocytes (PCE) of the bone marrow; test: Rat micronucleus assay; type: in vivo
Experimental: as §1, §2, §3, §4, §5, §6, §7

C=C(C)[C@@H]1CCC(C)=C[C@H]1c1c(O)cc(CCCC)cc1O [CBD-C4, (1′R,2′R)-4-butyl-5′-methyl-2′-(prop-1-en-2-yl)-1′,2′,3′,4′-tetrahydro-[1,1′-biphenyl]-2,6-diol]
increases in revertant numbers vs concurrent vehicle control ([1]; 5-5000 μg/plate, all test strains): no increases in revertant numbers
mutagenic activity ([1]; five strains): No genotoxicity was observed; also recorded: no evidence of any CBD-C4 mutagenic activity; also recorded: does not induce mutation
MTD (Rat micronucleus assay): ~500 mg/kg/day
bone marrow toxicity ([2]; 125, 250 and 500 mg/kg/day oral gavage): no evidence of test article related bone marrow toxicity
micronucleus PCE frequencies ([2]; all doses (125, 250 and 500 mg/kg/day) oral gavage): comparable with the vehicle control group
induction of micronuclei in polychromatic erythrocytes of the bone marrow ([2]; male rats treated up to 500 mg/kg/day): did not induce an increase in micronuclei; also recorded: No genotoxicity was observed
